Laboratory results as given in patent publication US5008290A, “Sulphonamidoethyl compounds and pharmaceutical compositions comprising these compounds” (Dr. Karl Thomae GmbH, priority 1986, dated 1991).

Tests used:
[1] = tested on: mice; assay: Acute toxicity after oral administration of a single dose; type: in vivo; settings: observation period 14 days; for animals died (mortality): single dose 500 mg/kg; for Approximate acute toxicity: single dose, groups of 10
Description: The acute toxicity of the substances being tested was determined approximately in groups of 10 mice after oral administration of a single dose (observation period 14 days): […]

[2] = tested on: platelet-rich plasma of healthy test subjects; assay: Antithrombotic activity: collagen-induced thrombocyte aggregation (BORN and CROSS method); type: cell-based; settings: Homo sapiens, 10 min, plasma incubated for 10 minutes with the substance at 37° C., read-out: EC50 (50% change in the "optical density" in terms of an inhibition of aggregation)
Description: Thrombocyte aggregation is measured using the BORN and CROSS method (J. Physiol. 170, 397 (1964)) in the platelet-rich plasma of healthy test subjects. To inhibit coagulation, 3.14% sodium citrate is added to the blood in a ratio by volume of 1:10.
The pattern of the decrease in optical density of the platelet suspension is photometrically measured and recorded after the addition of aggregation-inducing substance. The rate of aggregation is determined from the angle of inclination of the density curve. The point on the curve at which there is maximum transmittance is used to calculate the "optical density".
The quantity of collagen is kept as small as possible but sufficient to produce an irreversible reaction curve. The standard commercial collagen produced by Hormonchemie of Munich is used. Before the addition of collagen, the plasma is incubated for 10 minutes with the substance at 37° C.
From the measurements obtained, an EC50 is determined graphically, showing a 50% change in the "optical density" in terms of an inhibition of aggregation.

Row | SMILES | animals died (mortality) [1] | Approximate acute toxicity [1] | EC50 [2]
1 | Cn1c(CCNS(=O)(=O)c2ccccc2)ccc1C(=O)CCC(=O)O [Substance A, 4-[2-(2-Benzenesulphonylamino-ethyl)-1-methylpyrrol-5-yl]-4-oxybutyric acid] | 0 out of 10 animals | 500 mg/kg | 3500 nM
2 | Cn1c(CCNS(=O)(=O)c2ccc(Cl)cc2)ccc1C(=O)CCC(=O)O [Substance B, 4-[2-(2-(p-chlorobenzenesulphonylamino)-ethyl)-1-methylpyrrol-5-yl]-4-oxybutyric acid] | 0 out of 10 animals | 500 mg/kg | 400 nM
3 | Cn1c(CCNS(=O)(=O)c2cccs2)ccc1C(=O)CCC(=O)O [Substance C, 4-[2-(2-thiophen-2-yl-sulphonylamino-ethyl)-1-methylpyrrol-5-yl]-4-oxybutyric acid] | 0 out of 10 animals | 500 mg/kg | 390 nM
4 | Cn1c(CCNS(=O)(=O)c2ccc(F)cc2)ccc1C(=O)CCC(=O)O [Substance D, 4-[2-(2-(p-Fluorobenzenesulphonylamino)-ethyl)-1-methylpyrrol-5-yl]-4-oxybutyric acid] | 0 out of 10 animals | 500 mg/kg | 360 nM
5 | Cn1c(CCNS(=O)(=O)c2ccccc2)ccc1C1=NNC(=O)CC1 [Substance E, 6-[2-(2-Benzenesulphonylamino-ethyl)-1-methylpyrrol-5-yl]-4,5-dihydro-3(2H)-pyridazinone] | 0 out of 10 animals | 500 mg/kg | 2900 nM
